In patent EP0955294B1, “Imidazolyl-alkenoic acid” (SMITHKLINE BEECHAM CORPORATION, priority 1989, dated 1990):
Read-outs that look alike come from different tables or passages of the source.

Assays:
[1] = tested on: pressor response to exogenous angiotensin II; test: inhibition of pressor response to angiotensin II in conscious rats; format: in vivo; settings: Rattus norvegicus, dose producing 50% inhibition of the control response to angiotensin II, read-out: IC50 (the source's name)
Protocol: (§1) Angiotensin II antagonist activity of the compounds of Formula (I) is assessed by in vitro and in vivo methods. In vitro antagonist activity is determined by the ability of the compounds to compete with ^125I-angiotensin II for binding to vascular angiotensin It receptors and by their ability to antagonize the contractile response to angiotensin II in the isolated rabbit aorta. In vivo activity is evaluated by the efficacy of the compounds to inhibit the pressor response to exogenous angiotensin II in conscious rats and to lower blood pressure in a rat model of […] hypertension.
Rats are prepared with indwelling femoral arterial and venous catheters and a stomach tube (Gellai et al., Kidney Int. 15:419, 1979). Two to three days following surgery the rats are placed in a restrainer and blood pressure is continuously monitored from the arterial catheter with a pressure transducer and recorded on a polygraph. The change in mean arterial pressure in response to intravenous injections of […] angiotensin II is compared at various time points prior to and following the administration of the compounds intravenously or orally at doses of 0.1 to 300 mg/kg. The dose of compound needed to produce 50% inhibition of the control response to angiotensin II (IC50) is used to estimate the potency of the compounds.

[2] = tested on: conscious rats made renin-dependent hypertensive; test: antihypertensive activity in renal artery ligated (renin-dependent hypertensive) rats; format: in vivo; settings: dose needed to reduce mean arterial pressure by 30 mm Hg
Protocol: as §1
The antihypertensive activity of the compounds is measured by their ability to reduce mean arterial pressure in conscious rats made renin-dependent hypertensive by ligation of the left renal artery (Cangiano et al., J. Pharmacol. Exp. Ther. 208:310, 1979). Renal artery ligated rats are prepared with indwelling catheters as described above. Seven to eight days following renal artery ligation, the time at which plasma renin levels are highest, the conscious rats are placed in restrainers and mean arterial pressure is continuously recorded prior to and following the administration of the compounds intravenously or orally. The dose of compound needed to reduce mean arterial pressure by 30 mm Hg (IC50) is used as an estimate of potency.

For `CCCCc1ncc(/C=C(\Cc2cccs2)C(=O)O)n1Cc1ccccc1Cl` [Example 1, (E)-3-[2-n-Butyl-1-{(2-chlorophenyl)methyl}-1H-imidazol-5-yl]-2-(2-thienyl)methyl-2-propenoic Acid], the ED50 ([1]; iv, i.v.) was 3.6 mg/kg, the ED50 ([1]; po, orally) was 44 mg/kg and the ED (30 mm Hg) ([2]; Rattus norvegicus, po, orally, read-out: IC50) was 8 mg/kg. For the same compound, the IC50 ([2]; i.v.) was 1.80 mg/kg.
